Calls of active or inactive are those of the source. The rule behind the calls is not given here.
Experiments:
[1] = biological target: T1, Ubiquitin carboxyl-terminal hydrolase 1 (Homo sapiens, UniProt O94782); assay: Inhibition of His6-tagged human USP1 expressed in insect Sf21 cells coexpressing untagged UAF1 assessed as cleavage of Ubiquitin-Rhodamine110-glycine to Ubiquitin and Rhodamine110-glycine using Ubiquitin-Rhodamine110-glycine as substrate by fluorescence based analysis
T1 sequence (O94782 whole entry): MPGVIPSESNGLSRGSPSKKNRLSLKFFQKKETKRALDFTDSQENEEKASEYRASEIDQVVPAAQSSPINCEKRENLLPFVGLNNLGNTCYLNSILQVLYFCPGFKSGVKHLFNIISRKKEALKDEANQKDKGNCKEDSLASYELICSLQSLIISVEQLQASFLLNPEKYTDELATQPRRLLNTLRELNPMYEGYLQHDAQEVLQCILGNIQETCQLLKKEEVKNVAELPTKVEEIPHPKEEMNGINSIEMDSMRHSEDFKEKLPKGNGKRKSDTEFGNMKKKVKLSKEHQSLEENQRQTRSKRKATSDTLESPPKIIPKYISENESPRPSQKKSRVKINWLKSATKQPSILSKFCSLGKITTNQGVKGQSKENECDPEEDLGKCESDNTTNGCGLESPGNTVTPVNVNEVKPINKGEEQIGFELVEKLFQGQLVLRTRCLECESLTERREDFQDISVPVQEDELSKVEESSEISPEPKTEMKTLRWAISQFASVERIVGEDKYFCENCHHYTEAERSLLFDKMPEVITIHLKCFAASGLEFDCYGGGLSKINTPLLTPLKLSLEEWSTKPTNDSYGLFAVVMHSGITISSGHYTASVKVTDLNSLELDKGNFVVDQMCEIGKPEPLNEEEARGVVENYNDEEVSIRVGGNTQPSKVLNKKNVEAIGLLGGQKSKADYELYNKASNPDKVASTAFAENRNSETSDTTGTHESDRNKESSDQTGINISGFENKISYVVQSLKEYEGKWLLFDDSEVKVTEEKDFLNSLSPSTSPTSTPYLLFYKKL

[2] = biological target: T2, Ubiquitin carboxyl-terminal hydrolase 47 (Homo sapiens, UniProt Q96K76); assay: Inhibition of USP47 (unknown origin) by biochemical assay
T2 sequence (Q96K76 whole entry): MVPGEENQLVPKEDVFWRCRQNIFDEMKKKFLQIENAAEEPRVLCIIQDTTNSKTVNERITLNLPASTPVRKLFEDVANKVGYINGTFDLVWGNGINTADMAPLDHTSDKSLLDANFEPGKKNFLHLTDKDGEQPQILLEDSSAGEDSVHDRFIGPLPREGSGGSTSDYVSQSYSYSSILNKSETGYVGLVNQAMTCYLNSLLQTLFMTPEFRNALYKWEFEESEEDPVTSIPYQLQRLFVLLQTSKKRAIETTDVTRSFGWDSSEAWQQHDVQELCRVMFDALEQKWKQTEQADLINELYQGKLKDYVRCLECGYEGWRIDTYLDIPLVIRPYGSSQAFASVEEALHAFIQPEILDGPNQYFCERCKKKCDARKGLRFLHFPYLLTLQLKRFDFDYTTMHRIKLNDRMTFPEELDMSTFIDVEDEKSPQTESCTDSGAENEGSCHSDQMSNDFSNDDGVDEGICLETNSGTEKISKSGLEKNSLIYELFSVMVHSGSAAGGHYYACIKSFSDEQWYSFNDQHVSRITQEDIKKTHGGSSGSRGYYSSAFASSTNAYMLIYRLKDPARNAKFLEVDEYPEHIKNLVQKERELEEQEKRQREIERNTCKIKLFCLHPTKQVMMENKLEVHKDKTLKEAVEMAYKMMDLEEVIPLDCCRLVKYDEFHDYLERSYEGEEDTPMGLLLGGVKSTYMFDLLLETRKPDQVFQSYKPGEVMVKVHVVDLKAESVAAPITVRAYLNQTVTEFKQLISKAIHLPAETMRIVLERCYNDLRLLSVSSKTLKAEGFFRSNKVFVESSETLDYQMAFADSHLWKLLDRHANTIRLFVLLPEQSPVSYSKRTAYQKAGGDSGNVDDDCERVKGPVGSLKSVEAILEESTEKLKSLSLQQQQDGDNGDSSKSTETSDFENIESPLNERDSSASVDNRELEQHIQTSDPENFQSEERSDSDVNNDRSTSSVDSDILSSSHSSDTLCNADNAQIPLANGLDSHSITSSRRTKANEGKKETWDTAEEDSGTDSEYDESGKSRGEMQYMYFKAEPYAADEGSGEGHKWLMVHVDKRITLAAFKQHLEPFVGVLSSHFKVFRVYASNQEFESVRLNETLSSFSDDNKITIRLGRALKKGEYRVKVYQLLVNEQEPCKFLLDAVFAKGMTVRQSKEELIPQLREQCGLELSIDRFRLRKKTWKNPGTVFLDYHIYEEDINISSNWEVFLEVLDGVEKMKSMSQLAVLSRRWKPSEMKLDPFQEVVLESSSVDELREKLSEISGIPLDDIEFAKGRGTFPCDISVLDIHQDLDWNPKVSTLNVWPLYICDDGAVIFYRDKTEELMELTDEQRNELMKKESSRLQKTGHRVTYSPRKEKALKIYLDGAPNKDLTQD

[3] = biological target: T3, Ubiquitin carboxyl-terminal hydrolase isozyme L3 (Homo sapiens, UniProt P15374); assay: Inhibition of human GST-tagged UCHL3 expressed in Escherichia coli assessed as cleavage of Ubiquitin-Rhodamine110-glycine to Ubiquitin and Rhodamine110-glycine using Ubiquitin-Rhodamine110-glycine as substrate by fluorescence based analysis
T3 sequence (P15374 whole entry): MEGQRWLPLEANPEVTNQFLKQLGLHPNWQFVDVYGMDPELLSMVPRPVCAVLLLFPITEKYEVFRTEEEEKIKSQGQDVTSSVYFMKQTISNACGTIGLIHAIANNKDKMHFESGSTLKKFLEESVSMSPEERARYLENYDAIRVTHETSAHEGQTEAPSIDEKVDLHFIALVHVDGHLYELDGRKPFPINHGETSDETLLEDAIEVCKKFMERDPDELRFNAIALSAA

MM1.S [4] = assay: Antitumor activity against human MM1S cells xenografted in NOD/SCID mouse assessed as tumor growth inhibition at 50 mg/kg, po administered twice daily and measured twice per week relative to control; assay type: functional; conditions: read-out: TGI
[5] = biological target: T4, Ubiquitin carboxyl-terminal hydrolase 7 (Homo sapiens, UniProt Q93009); assay: Inhibition of recombinant full length USP7 (unknown origin) using ubiquintin-rhodamine as substrate preincubated for 30 mins followed by substrate addition measured after 1 hr by fluorescence-based Envision plate reader assay
T4 sequence (Q93009 whole entry): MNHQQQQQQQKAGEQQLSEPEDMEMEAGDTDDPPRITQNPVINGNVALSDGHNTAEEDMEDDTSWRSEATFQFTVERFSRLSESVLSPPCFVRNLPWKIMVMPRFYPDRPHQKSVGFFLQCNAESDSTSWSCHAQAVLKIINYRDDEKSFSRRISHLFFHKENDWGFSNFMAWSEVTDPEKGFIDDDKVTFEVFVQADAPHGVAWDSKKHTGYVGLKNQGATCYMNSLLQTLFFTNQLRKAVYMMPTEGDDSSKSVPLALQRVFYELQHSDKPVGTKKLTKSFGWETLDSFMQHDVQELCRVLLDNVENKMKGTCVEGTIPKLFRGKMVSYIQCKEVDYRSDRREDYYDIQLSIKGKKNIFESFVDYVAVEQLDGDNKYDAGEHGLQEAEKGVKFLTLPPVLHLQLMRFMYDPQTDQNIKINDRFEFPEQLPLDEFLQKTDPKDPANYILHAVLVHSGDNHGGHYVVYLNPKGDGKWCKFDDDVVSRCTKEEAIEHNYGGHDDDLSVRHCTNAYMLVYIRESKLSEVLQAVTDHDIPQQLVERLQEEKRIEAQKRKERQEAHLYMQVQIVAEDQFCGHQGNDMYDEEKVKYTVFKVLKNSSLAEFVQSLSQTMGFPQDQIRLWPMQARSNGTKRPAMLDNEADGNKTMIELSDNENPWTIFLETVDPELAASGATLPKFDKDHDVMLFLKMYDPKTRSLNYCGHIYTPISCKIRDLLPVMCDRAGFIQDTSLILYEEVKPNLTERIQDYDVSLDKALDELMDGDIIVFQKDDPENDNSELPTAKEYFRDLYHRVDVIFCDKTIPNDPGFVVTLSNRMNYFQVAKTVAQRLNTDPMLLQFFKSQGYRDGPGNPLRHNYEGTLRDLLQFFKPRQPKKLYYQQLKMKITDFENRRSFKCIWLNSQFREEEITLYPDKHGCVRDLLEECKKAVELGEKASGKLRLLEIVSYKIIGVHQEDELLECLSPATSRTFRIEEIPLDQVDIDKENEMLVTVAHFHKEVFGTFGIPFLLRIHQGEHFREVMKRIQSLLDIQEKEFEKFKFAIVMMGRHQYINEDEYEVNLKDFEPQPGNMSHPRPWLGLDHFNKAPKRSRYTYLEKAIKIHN

[6] = biological target: T4, Ubiquitin carboxyl-terminal hydrolase 7; assay: Inhibition of USP7 in human RKO cells transfected with p53 luciferase reporter vector assessed as increase in p53-dependent luciferase activity measured after 18 hrs by BrightGlo luciferase assay; assay type: cell-based
MM1.S [7] = assay: Cytotoxicity against human MM1S cells expressing wild type p53 assessed as reduction in cell viability measured after 5 days by CellTiter-Glo assay; assay type: functional; conditions: 120 h
NCI-H526 [8] = assay: Cytotoxicity against human NCI-H526 cells expressing p53 mutant assessed as reduction in cell viability measured after 5 days by CellTiter-Glo assay; assay type: functional; conditions: NCI-H526, 120 h
[9] = Cytotoxicity against human RKO cells assessed as reduction in cellular ATP level measured after 5 days by CellTiter-Glo assay; assay type: cell-based
[10] = biological target: Voltage-gated inwardly rectifying potassium channel KCNH2 (Homo sapiens, UniProt Q12809); assay: Inhibition of human ERG
Sequence of Voltage-gated inwardly rectifying potassium channel KCNH2 (Q12809 whole entry): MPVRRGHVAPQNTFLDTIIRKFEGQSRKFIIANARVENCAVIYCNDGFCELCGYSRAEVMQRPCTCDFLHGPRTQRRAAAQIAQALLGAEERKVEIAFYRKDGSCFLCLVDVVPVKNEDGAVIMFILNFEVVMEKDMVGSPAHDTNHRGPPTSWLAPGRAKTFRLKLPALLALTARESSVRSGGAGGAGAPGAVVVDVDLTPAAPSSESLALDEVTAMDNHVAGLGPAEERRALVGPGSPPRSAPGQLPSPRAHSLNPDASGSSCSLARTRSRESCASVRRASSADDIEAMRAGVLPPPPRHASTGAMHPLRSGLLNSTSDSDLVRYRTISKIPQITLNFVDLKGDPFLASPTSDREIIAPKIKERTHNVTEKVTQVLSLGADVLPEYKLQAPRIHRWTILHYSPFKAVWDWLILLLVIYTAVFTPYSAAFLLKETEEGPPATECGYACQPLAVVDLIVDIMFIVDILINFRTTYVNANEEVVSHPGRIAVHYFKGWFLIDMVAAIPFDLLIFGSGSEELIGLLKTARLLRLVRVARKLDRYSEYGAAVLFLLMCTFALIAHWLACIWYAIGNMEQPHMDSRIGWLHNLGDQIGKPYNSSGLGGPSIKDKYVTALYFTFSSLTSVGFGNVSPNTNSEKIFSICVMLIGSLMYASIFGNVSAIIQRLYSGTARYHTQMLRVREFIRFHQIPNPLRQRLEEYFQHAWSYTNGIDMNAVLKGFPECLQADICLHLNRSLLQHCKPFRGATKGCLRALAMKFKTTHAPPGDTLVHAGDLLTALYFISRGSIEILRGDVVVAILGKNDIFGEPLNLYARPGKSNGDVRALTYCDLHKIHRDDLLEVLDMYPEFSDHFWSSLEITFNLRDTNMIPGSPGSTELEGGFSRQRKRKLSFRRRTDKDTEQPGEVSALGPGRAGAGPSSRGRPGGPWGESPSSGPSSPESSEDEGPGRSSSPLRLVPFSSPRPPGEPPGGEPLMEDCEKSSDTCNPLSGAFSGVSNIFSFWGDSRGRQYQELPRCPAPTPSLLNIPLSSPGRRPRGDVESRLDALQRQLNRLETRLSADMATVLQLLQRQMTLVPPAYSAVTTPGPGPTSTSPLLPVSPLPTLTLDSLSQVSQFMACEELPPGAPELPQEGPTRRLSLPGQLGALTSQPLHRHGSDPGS

[11] = AUC in BALB/c mouse at 30 mg/kg, po; assay type: ADME, organism-based; conditions: in vivo
[12] = AUC in NOD/SCID mouse at 30 mg/kg, po; assay type: ADME, organism-based; conditions: in vivo
[13] = AUC in nude mouse at 30 mg/kg, po; assay type: ADME, organism-based; conditions: in vivo
[14] = Protein binding in mouse plasma by ultracentrifugation method; assay type: ADME, cell-free; conditions: read-out: PPB (converted)
[15] = Toxicity in NOD/SCID mouse xenografted with human MM1S cells assessed as decrease in body weight at 50 mg/kg, po administered twice daily and measured twice per week relative to control; assay type: organism-based; design: scale not given: the % may be the effect or the level left; conditions: in vivo
NCI-H526 [16] = conditions: Homo sapiens
Description: Antitumor activity against human NCI-H526 cells xenografted in athymic nu/nu mouse assessed as tumor growth inhibition at 50 mg/kg, po administered twice daily for 24 days and measured twice per week

Structure (SMILES)	IC50 [1] [µM]	IC50 [2] [µM]	IC50 [3] [µM]	inhibition in vivo at 50 mg/kg (MM1.S [4]) [%]	IC50 [5] [nM]	EC50 [6] [nM]	CC50 (MM1.S [7]) [nM]	CC50 (NCI-H526 [8]) [nM]	CC50 at 120 h [9] [µM]	IC50 [10] [µM]	AUC [11] [ng·h/mL]	AUC [12] [ng·h/mL]	AUC [13] [ng·h/mL]	fraction unbound [14]	Activity [15] [%]	TGI (NCI-H526 [16])
CC(Cc1ccccc1)C(=O)N1CCC(O)(Cn2cnc3ccccc3c2=O)CC1 (stereo not given)	> 80	> 80	> 80													
Cc1cc(Cl)cc(-c2ccnc3cc(CN4C(=O)C5C(C4=O)C5(C)C)sc23)c1C[C@@H]1CNCCO1 (stereo not given in full)				100	0.44	25	89	450	13	4.2	9400	5500	4600	0.047	< 90	Active
Nc1cc(-c2cc(Cl)cc3c2OC(C(=O)N2CCNCC2)C3)ccn1 (racemic)	> 80	> 80	> 80		5600											

Reference: ChEMBL document CHEMBL4602719, “Discovery of Potent, Selective, and Orally Bioavailable Inhibitors of USP7 with In Vivo Antitumor Activity” (J Med Chem, 2020)
